Test results from patent US7696240B2, “Fused pyrrole derivatives” (Hoffmann-La Roche Inc., priority 2005, dated 2010).

Molecular target: T1, Chymase purified form human skin mast cells (Homo sapiens, UniProt P23946)
T1 construct: Chymase purified form human skin mast cells was obtained from Calbiochem; purchased Calbiochem (Merck Biosciences, San Diego, Calif., USA); host or cells: human skin mast cells (natural source)
T1 sequence (P23946 22-247): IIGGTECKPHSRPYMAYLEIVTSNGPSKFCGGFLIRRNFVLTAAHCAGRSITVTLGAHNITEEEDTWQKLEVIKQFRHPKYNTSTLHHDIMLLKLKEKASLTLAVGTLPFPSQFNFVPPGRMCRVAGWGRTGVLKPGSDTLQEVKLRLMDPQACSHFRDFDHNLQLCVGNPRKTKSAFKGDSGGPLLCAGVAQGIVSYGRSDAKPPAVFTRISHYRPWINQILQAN
Experiment: chymase peptide substrate (AAPF-AMC) fluorescence assay
Type: biochemical
Conditions: 0.02 mM AAPF-substrate, 0.1 nM Chymase, pH 7.4, room temperature, 30 min pre-incubation
Method: The peptide was synthesized with a purity of 95% from Bachem, Bubendorf, Switzerland). Chymase purified form human skin mast cells was obtained from Calbiochem (Merck Biosciences, San Diego, Calif., USA). The assay buffer was 0.15 M NaCl, 0.05M, Tris HCl, 0.05% CHAPS (3-[(3-Cholamidopropyl)-dimethylammonio]-1-propane sulphonate), 0.1 mg/ml Heparin (Heparin sodium, Sigma, porcine intestinal mucosa), 0.02 mM AAPF-substrate, 0.1 nM Chymase at pH 7.4. The assay was performed in 96-well plates (Packard Optiplate), with a 0.05 ml volume at room temperature. Chymase activity was indicated by the initial rate of increase in fluorescence at 340/440 nm (excitation/emission) from free 7-amino-4-methylcoumarin released from the substrate. Inhibition of the activity by inhibitory compounds was read after 30 min pre-incubation with the chymase at room temperature in assay buffer without AAPF-substrate. The assay was then started by addition of the indicated concentration of AAPF-substrate.

Structure (SMILES) | IC50 [nM]
O=C(O)Cc1c(C(=O)O)n(Cc2cccc3ccccc23)c2ccccc12 [Example 5, 3-Carboxymethyl-1-naphthalen-1-ylmethyl-1H-indole-2-carboxylic acid] | 37
Cc1ccc(C(=O)NCc2c(C(=O)O)n(Cc3cccc4ccccc34)c3ccccc23)cc1 [Example 10, 3-[(4-Methyl-benzoylamino)-methyl]-1-naphthalen-1-ylmethyl-1H-indole-2-carboxylic acid] | 38
O=C(O)c1cc2ccccc2n1Cc1cccc2ccc(F)cc12 [Example 49, 1-(7-Fluoro-naphthalen-1-ylmethyl)-1H-indole-2-carboxylic acid] | 17
O=C(O)c1cc2ccccc2n1Cc1csc2ccc(F)cc12 [Example 55, 1-(5-Fluoro-benzo[b]thiophen-3-ylmethyl)-1H-indole-2-carboxylic acid] | 30
CS(=O)(=O)NCc1c(C(=O)O)n(Cc2cccc3ccc(F)cc23)c2ccccc12 [Example 105, 1-(7-Fluoro-naphthalen-1-ylmethyl)-3-(methanesulfonylamino-methyl)-1H-indole-2-carboxylic acid] | 0.8
COC(=O)N(C)Cc1c(C(=O)O)n(Cc2cccc3ccc(F)cc23)c2ccccc12 [Example 106, 1-(7-Fluoro-naphthalen-1-ylmethyl)-3-[(methoxycarbonyl-methyl-amino)-methyl]-1H-indole-2-carboxylic acid] | 0.2
COC(=O)N(C)Cc1c(C(=O)O)n(Cc2csc3ccc(F)cc23)c2ccccc12 [Example 117, 1-(5-Fluoro-benzo[b]thiophen-3-ylmethyl)-3-[(methoxycarbonyl-methyl-amino)-methyl]-1H-indole-2-carboxylic acid] | 1
